# Read-outs that look alike come from different tables or passages of the source.
# How the values were obtained:
# EGFR wild type = biological target: T1, EGFR wild type (Homo sapiens, UniProt P00533); experiment: Inhibition of EGFR wild type biochemical enzymatic activity (HTRF); conditions: EGFR wild type, 1 mM ATP, 1 h at room temperature
# T1 construct: purchased Carna Bio
# How it was run: (§1)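 Read-out is the HTRF 665/615 nm ratio (excitation 320 nm), taken as proportional to kinase activity after a 1 h room-temperature reaction with 1 mM ATP and 1 μM biotinylated TK substrate. IC50 values derive from four-parameter logistic fitting.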
# EGFR L858R = biological target: T2, EGFR L858R (Homo sapiens, UniProt P00533, L858R); experiment: Inhibition of EGFR L858R biochemical enzymatic activity (HTRF); conditions: 1 mM ATP, 1 h at room temperature
# T2 construct: purchased Carna Bio
# How it was run: as §1
# EGFR L858R/T790M = biological target: T3, EGFR L858R/T790M (Homo sapiens, UniProt P00533, L858R/T790M); experiment: Inhibition of EGFR L858R/T790M biochemical enzymatic activity (HTRF); conditions: EGFR L858R/T790M, 1 mM ATP, 1 h at room temperature
# T3 construct: purchased Carna Bio
# How it was run: as §1
# EGFR Exon19Del = biological target: T4, EGFR Exon19Del (Homo sapiens, UniProt P00533, DEL746-750); experiment: Inhibition of EGFR Exon19Del biochemical enzymatic activity (HTRF); conditions: 1 mM ATP, 1 h at room temperature
# T4 construct: purchased Carna Bio
# How it was run: as §1
# EGFR Exon19Del/T790M = biological target: T5, EGFR Exon19Del/T790M (Homo sapiens, UniProt P00533, DEL746-750/T790M); experiment: Inhibition of EGFR Exon19Del/T790M biochemical enzymatic activity (HTRF); conditions: EGFR Exon19Del/T790M, 1 mM ATP, 1 h at room temperature
# T5 construct: purchased Carna Bio
# How it was run: as §1
# EGFR[T790M/C797S/L858R] = biological target: T6, EGFR[T790M/C797S/L858R] (Homo sapiens, UniProt P00533, C797S/L858R/T790M); experiment: Inhibition of EGFR[T790M/C797S/L858R] biochemical enzymatic activity (HTRF); conditions: EGFR[T790M/C797S/L858R], 1 mM ATP, 1 h at room temperature
# T6 construct: purchased Carna Bio
# How it was run: as §1
# [1] = biological target: T7, EGFR[T790M/C797S/d746-750] (Homo sapiens, UniProt P00533, C797S/DEL746-750/T790M); experiment: Inhibition of EGFR[T790M/C797S/d746-750] biochemical enzymatic activity (HTRF); conditions: 1 mM ATP, 1 h at room temperature
# T7 construct: purchased Carna Bio
# How it was run: as §1
# EGFR (d746-750 C797S) = biological target: T8, EGFR (d746-750 C797S) (Homo sapiens, UniProt P00533, C797S/DEL746-750); experiment: Inhibition of EGFR (d746-750 C797S) biochemical enzymatic activity (HTRF); conditions: EGFR (d746-750 C797S), 1 mM ATP, 1 h at room temperature
# T8 construct: purchased signalchem
# How it was run: as §1
# EGFR (C797S L858R) = biological target: T9, EGFR (C797S L858R) (Homo sapiens, UniProt P00533, C797S/L858R); experiment: Inhibition of EGFR (C797S L858R) biochemical enzymatic activity (HTRF); conditions: EGFR (C797S L858R), 1 mM ATP, 1 h at room temperature
# T9 construct: purchased signalchem
# How it was run: as §1
# [2] = tested on: Ba/F3 cells expressing EGFR mutations; experiment: Cell proliferation assay, Ba/F3 cells expressing EGFR mutations (CellTiter-Glo, 72 hours); type: cell-based
# How it was run: (§2)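 Seed Ba/F3 at 5000 cells/well and PC-9 at 500 cells/well (10% FBS RPMI1640); incubate overnight; add compound dilution series; read a G0 plate; incubate; read G3; GI50 from best-fit curve.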
# PC-9 = experiment: Cell proliferation assay, PC-9 cells (CellTiter-Glo, 72 hours); type: cell-based; conditions: PC9 cells, read-out: GI50 PC9
# How it was run: as §2
# A-431 = experiment: Cell proliferation assay, A-431 cells (GI50, Table 6); type: cell-based
# Experimental: [Worded in the source for another cell line; this cell line is reported under the same test.] Ba/F3 cells expressing EGFR mutations were seeded in 384-well plates at 5000 cells/well in RPMI1640 medium containing […]. PC-9 at 500 cells/well was seeded into 384-well plates in RPMI1640 medium with 10% FBS. After overnight incubation, the assay plates were dosed with compounds at a series of concentrations. Alongside dosing the assay plates, the day 0 plate was processed using CellTiter-Glo® Luminescent Cell Viability Assay (Promega) to measure the number of viable cells (G0). The assay plates were further incubated for 72 hours and the number of viable cells (G3) was measured. The percentage of proliferation was calculated as: […]=100×(G3 value of sample well−G0 value)/(G3 value of DMSO control−G0 value). The concentration of compound producing 50% proliferation inhibition (GI50) was further calculated in best-fit curves using XLFit software. N/A=not available.
# [3] = BaF3 cells, EGFR DEL19 - C797S, read-out: GI50 DEL19 - C797S/BaF3
# [4] = BaF3 cells, EGFR DEL19 - T790-C797S, read-out: GI50 DEL19 - T790-C797S/BaF3
# [5] = BaF3 cells, EGFR L858R - C797S, read-out: GI50 L858R - C797S/BaF3
# [6] = BaF3 cells, EGFR L858R - T790-C797S, read-out: GI50 L858R - T790-C797S/BaF3
# [7] = BaF3 cells, EGFR L858R - T790M, read-out: GI50 L858R - T790M/BaF3
# [8] = BaF3 cells, EGFR L858R, read-out: GI50 L858R/BaF3
# [9] = EGFR DEL19 - T790M, read-out: GI50 DEL19 - T790M
# [10] = Homo sapiens, A-431, A-431 cells
# [11] = EGFR Exon19Del, read-out: IC50 @Del19
# [12] = read-out: IC50 @T790M- C797S - L858R
# [13] = EGFR[T790M/C797S/d746-750], read-out: IC50 @T790M - C797S - Del19
# T7 sequence (P00533 with tags, fused parts or gaps DEL746-750/T790M/C797S limits assumed): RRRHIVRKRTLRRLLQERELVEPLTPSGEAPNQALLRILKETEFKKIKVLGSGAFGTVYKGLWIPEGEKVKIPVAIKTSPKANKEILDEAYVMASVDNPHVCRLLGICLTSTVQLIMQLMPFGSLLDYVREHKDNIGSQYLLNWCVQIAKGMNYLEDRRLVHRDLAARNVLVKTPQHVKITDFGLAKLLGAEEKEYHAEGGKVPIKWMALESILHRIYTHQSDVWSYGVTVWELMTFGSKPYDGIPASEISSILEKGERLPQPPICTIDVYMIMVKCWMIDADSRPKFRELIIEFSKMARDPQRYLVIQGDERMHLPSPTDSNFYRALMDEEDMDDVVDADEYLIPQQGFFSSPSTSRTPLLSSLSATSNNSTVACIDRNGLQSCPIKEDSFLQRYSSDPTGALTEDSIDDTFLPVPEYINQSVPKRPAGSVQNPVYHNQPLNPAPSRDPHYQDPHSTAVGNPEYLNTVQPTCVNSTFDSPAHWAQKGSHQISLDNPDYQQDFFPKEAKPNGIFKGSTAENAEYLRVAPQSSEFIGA
# T3 sequence (P00533 25-1210 T790M/L858R): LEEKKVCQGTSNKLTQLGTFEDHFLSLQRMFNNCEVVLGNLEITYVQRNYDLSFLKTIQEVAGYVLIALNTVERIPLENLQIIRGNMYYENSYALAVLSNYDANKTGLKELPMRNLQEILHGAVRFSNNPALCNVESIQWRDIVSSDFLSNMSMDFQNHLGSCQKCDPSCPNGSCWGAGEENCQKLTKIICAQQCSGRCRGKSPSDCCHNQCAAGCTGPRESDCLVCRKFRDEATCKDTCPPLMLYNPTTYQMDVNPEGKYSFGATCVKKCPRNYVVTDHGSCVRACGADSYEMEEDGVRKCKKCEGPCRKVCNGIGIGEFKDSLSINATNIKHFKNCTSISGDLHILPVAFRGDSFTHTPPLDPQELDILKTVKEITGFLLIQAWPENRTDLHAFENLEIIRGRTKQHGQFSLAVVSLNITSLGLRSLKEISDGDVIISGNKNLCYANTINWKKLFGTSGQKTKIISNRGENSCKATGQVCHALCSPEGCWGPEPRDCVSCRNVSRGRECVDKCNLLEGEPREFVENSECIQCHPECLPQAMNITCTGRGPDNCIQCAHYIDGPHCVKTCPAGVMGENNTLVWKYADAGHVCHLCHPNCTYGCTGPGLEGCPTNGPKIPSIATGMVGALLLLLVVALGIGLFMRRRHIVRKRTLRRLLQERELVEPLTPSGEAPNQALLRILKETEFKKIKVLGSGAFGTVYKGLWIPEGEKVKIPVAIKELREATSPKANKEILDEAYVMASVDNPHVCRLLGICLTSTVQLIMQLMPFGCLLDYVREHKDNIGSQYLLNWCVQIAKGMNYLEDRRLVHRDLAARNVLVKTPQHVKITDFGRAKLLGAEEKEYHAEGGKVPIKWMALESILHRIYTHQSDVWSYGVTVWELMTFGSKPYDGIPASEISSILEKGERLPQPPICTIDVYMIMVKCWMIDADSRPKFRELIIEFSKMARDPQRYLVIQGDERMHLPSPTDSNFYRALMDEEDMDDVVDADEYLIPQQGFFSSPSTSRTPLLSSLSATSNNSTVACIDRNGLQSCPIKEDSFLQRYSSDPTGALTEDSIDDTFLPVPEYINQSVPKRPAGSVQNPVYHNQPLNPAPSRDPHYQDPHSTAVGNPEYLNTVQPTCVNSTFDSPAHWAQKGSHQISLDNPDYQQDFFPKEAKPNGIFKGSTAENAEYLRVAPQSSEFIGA
# T2 sequence (P00533 25-1210 L858R): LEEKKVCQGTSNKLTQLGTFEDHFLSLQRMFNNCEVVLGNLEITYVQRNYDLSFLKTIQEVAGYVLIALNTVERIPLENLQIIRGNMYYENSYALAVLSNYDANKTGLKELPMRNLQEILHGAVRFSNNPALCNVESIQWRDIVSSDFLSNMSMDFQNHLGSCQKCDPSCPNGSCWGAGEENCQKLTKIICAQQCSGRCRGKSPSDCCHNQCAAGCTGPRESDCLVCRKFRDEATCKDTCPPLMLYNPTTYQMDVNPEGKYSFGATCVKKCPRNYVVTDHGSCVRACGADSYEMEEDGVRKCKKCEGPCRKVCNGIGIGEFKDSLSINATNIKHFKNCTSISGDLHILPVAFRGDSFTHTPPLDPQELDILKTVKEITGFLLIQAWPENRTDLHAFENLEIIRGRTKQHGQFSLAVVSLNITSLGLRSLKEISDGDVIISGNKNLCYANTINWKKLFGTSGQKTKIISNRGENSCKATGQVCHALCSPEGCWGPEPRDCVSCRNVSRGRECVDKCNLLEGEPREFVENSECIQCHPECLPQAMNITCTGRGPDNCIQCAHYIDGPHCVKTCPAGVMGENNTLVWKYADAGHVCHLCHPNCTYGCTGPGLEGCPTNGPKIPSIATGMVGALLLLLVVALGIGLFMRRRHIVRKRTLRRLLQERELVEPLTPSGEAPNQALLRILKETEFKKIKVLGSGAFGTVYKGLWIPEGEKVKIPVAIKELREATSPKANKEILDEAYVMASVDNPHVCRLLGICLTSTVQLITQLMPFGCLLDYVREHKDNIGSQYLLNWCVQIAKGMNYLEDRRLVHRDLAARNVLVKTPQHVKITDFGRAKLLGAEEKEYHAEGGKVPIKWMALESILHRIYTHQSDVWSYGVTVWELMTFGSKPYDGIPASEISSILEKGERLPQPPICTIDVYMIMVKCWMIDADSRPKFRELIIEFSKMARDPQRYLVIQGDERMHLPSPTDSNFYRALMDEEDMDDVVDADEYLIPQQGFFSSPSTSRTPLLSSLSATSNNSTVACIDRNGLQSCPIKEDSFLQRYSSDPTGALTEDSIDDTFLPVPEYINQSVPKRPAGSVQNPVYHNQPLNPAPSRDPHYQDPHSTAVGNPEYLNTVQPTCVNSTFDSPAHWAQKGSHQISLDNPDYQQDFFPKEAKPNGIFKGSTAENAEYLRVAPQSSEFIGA
# T4 sequence (P00533 with tags, fused parts or gaps DEL746-750 limits assumed): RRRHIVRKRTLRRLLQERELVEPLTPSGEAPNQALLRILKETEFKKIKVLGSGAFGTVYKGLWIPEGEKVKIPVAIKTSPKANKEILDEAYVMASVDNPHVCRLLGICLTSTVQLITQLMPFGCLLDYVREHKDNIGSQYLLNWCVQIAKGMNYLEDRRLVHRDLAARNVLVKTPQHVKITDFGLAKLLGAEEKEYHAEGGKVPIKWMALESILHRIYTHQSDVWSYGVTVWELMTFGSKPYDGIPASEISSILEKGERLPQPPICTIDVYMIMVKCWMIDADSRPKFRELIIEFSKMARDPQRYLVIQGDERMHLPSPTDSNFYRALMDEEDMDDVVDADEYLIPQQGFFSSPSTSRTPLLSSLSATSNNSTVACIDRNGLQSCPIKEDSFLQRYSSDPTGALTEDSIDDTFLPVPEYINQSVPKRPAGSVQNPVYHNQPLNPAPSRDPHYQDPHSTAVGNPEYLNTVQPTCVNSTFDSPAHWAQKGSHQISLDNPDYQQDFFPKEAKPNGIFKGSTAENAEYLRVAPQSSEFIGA
# T1 sequence (P00533 25-1210): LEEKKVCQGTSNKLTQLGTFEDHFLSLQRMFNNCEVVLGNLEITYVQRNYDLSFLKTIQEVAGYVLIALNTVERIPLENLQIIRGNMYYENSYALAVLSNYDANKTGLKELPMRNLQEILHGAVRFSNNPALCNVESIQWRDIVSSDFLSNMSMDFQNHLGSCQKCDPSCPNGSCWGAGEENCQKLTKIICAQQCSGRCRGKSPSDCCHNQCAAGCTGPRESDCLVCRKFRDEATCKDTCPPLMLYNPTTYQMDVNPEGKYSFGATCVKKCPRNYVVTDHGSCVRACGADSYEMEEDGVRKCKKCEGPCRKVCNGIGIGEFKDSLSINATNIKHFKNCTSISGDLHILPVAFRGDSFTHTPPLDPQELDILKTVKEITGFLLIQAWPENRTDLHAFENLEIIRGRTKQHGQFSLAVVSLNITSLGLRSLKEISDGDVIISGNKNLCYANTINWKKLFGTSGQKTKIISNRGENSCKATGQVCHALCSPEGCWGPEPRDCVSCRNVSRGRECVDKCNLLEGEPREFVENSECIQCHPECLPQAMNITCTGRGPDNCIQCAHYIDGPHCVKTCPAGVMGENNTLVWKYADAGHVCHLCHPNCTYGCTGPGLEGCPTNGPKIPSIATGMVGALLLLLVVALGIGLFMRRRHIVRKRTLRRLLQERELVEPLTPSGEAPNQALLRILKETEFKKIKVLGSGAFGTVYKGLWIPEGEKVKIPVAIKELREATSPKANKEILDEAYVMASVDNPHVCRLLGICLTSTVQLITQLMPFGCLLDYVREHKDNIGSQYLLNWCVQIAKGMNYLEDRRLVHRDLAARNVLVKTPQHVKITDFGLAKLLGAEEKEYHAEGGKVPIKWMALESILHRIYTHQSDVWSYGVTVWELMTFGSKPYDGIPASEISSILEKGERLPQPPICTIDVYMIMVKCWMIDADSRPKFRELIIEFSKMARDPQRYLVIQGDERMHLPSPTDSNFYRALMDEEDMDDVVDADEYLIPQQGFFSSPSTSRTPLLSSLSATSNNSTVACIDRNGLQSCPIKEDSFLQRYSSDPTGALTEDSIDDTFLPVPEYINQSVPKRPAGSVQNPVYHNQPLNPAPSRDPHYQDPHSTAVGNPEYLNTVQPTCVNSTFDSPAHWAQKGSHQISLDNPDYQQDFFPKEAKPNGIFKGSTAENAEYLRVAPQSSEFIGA
Structure (SMILES),"GI50 [2, 3] [nM]","GI50 [2, 4] [nM]","GI50 [2, 5] [nM]","GI50 [2, 6] [nM]","GI50 [2, 7] [nM]","GI50 [2, 8] [nM]","GI50 [2, 9] [nM]",GI50 (PC-9) [nM],GI50 (A-431; [10]) [nM],IC50 (EGFR wild type; read-out: IC50 @WT) [nM],IC50 (EGFR L858R; read-out: IC50 @L858R) [nM],IC50 (EGFR L858R/T790M; read-out: IC50 @L858R-T790M) [nM],IC50 (EGFR Exon19Del; [11]) [nM],IC50 (EGFR Exon19Del/T790M; read-out: IC50 @Del19-T790M) [nM],IC50 (EGFR[T790M/C797S/L858R]; [12]) [nM],"IC50 [1, 13] [nM]",IC50 (EGFR (d746-750 C797S); read-out: IC50 @Del19-C797S) [nM],IC50 (EGFR (C797S L858R); read-out: IC50 @L858-C797S) [nM],further results
"Cc1cc2cc(n1)-c1cnn(C)c1OCCN1CC3CCC(C3)(C1)n1c(nc3ccc(N4CCC(N(C)C)CC4)cc31)NC2=O (single isomer, unassigned) [Example B40B, 5-[4-(dimethylamino)piperidin-1-yl]-15,21-dimethyl-23-oxa-2,9,11,16,20,21,26-heptaazaheptacyclo[24.4.1.1^{1,28}.1^{13,17}.0^{2,10}.0^{3,8}.0^{18,22}]tritriaconta-3,5,7,9,13,15,17(33),18(22),19-nonaen-12-one]",2,2,6,2,2,8,2,9,333,–,–,–,–,–,–,–,–,–,"IC50 (EGFR wild type; IC50 @WT): 100 nM; IC50 (EGFR L858R; IC50 @L858R): 15 nM; IC50 (EGFR L858R/T790M; IC50 @L858R-T790M): 3.3 nM; IC50 (EGFR Exon19Del; IC50 @Del19, EGFR Exon19Del): 4.5 nM; IC50 (EGFR Exon19Del/T790M; IC50 @Del19-T790M): 4.7 nM; IC50 (EGFR[T790M/C797S/L858R]; IC50 @T790M- C797S - L858R): 2.4 nM; IC50 ([1]; IC50 @T790M - C797S - Del19, EGFR[T790M/C797S/d746-750]): 2.3 nM; IC50 (EGFR (d746-750 C797S); IC50 @Del19-C797S): 2.2 nM; IC50 (EGFR (C797S L858R); IC50 @L858-C797S): 4.4 nM"
"Cc1cc2cc(n1)-c1cnn(C)c1OCCN1CC3CCC(C3)(C1)n1c(nc3ccc(N4CC[C@H](N(C)C)C4)cc31)NC2=O (single isomer, unassigned) [Example B41B]",2,2,7,2,2,12,2,8,1790,581,34,4.2,7.5,4.9,2.2,3.3,3,8.8,–
"Cc1cc2cc(n1)-c1cnn(C)c1OCCN1CC3CCC(C3)(C1)n1c(nc3ccc(N4CC5CN(C)CC5C4)cc31)NC2=O (single isomer, unassigned) [Example B43B]",2,2,7,2,2,12,2,7,437,489,36,4.8,6.6,5.2,2.3,3,3,9,–
"Cc1cc2cc(n1)-c1cnn(C)c1OCCN1CC3CCC(C3)(C1)n1c(nc3ccc(N4CCC(N5CCOCC5)C4)cc31)NC2=O (single isomer, unassigned) [Example B44B1]",2,2,6,2,2,24,7,22,3690,> 5000,337,19,34,12,6.4,8.8,12,66,–
"Cc1cc2cc(n1)-c1cnn(C)c1OCCN1CC3CCC(C3)(C1)n1c(nc3ccc(N4CCC(N5CCOCC5)C4)cc31)NC2=O (single isomer, unassigned) [Example B44B2]",2,2,11,2,2,19,8,22,–,4900,267,14,21,8.4,5.5,7,8.5,66,GI50 (A-431; A-431 cells): 3060 nM
"Cc1cc2cc(n1)-c1cnn(C)c1OCCN1CC3CCC(C3)(C1)n1c(nc3ccc(N4CCC(N5CCOCC5)C4)cc31)NC2=O (single isomer, unassigned) [Example B44B]",2,2,12,2,2,15,2,13,929,> 5000,170,13,18,6.4,4.9,4.3,8.1,50,–
